Measured values reported in patent US9782361B2 (Katholieke Universiteit Leuven, priority 2011, dated 2017).

Assays:
[1] = system: PTZ-induced seizures in zebrafish larvae; test: Zebrafish PTZ seizure assay (videotracking of larval locomotor activity); format: in vivo
Experimental: Zebrafish larvae from 7-dpf were tracked using the ViewPoint VideoTrack System for Zebrafish™ (Version 2.3.1.0, ViewPoint, France). The system consists of an infrared light source, a high-resolution digital videocamera to capture larval movements within a defined time period (30 minutes in our experimental set-up) and the software to analyze larval locomotor activity (FIG. 1).
The highest concentration tested corresponds to the previously determined MTC. Zebrafish larvae were placed in a 96-well plate (tissue culture plate, flat bottom, FALCON®, USA); one larva per well. Each row of the plate (12 wells) comprised different treatment groups. Two adjacent rows contain the same compound but received two different treatments: a) first row, embryo medium (DMSO 1%), and b) second row, PTZ 20 mM. The first two rows of the plate (vehicle control group, where vehicle was embryo medium) contained a volume of 100 μl of embryo medium (1% DMSO) per well. The following three test groups (two rows each) contained 100 μl of different concentrations of test compound in embryo medium. The larvae thus treated were incubated at room temperature in dark and quiet conditions for 1 hour. Embryo medium (100 μl) was added to the first rows of each one of the four groups. Likewise, 100 μl of PTZ 40 mM were added to the second rows of each treatment group (final concentration of PTZ: 20 mM). Thus, the movement pattern of the exposed zebrafish larvae was video-tracked and assessed in presence of embryo medium (1% DMSO) and PTZ 20 mM. Videotracking of larval movements was started 5 minutes after addition of embryo medium or PTZ to the wells and was recorded for 30 minutes. A total of 8 wells in each plate were left without larvae (medium only) as a negative control, so that each experimental parameter consisted of an average of 10 to 12 larvae. The tracker software measured three periods of 10 minutes of larvae movement. Results were registered as the average value of the total time of larvae movement during 30 minutes. The figures shown are representative of a series of two similar experiments.
All statistical analyses were performed using GraphPad Prism 5 software (GraphPad Software, Inc.). Values were presented as means±standard deviation (SD). The locomotor activity of zebrafish larvae was analyzed using one-way ANOVA followed by Dunnett's multiple comparison test. Statistically significant differences (p<0.05) between a treated group and the equivalent control groups (vehicle or PTZ) were considered indicative of decrease or increase in locomotor activity of zebrafish larvae. For mouse experiments, significant differences between estimated time intervals prior to above-mentioned seizure stages were calculated using the unpaired Student's t-test.

[2] = system: PTZ-induced seizures in mice; test: Mouse PTZ-induced seizure assay (PTZ tail vein infusion); format: in vivo
Experimental: Mice were randomly divided into groups of five animals (vehicle (where vehicle was polyethylene glycol 200 (PEG200):water 1:1) and sample). The animals were pre-warmed under an infrared lamp for 10 minutes to dilate the tail veins. They were then placed in a restrainer and the lateral tail vein was catheterized with 1-cm long, 29-gauge needle. The needle was secured to the tail with surgical tape after confirming a correct placement. The needle was attached to a 0.7-m long polyethylene tubing connected to two 2.5-ml glass syringes containing: a) sample (control vehicle or test compounds) and b) PTZ (7.5 mg/ml ddH2O). These syringes were mounted on an infusion pump (ALADOIN-1000 11 VDC, 0.75 Å, World Precision Instruments). Thus, 100 μL of control vehicle (PEG 200: ddH2O 1:1) or test compounds (turmeric oil and ar-turmerone) were IV infused at the rate of 50 μl/min for 2 minutes. Ten minutes later, mice were released from the restrainer and placed in a transparent plastic cage for observation.
PTZ was constantly infused at the rate of 150 μl/min. Seizure manifestation stages in mice were scored according to the time between the start of PTZ infusion and the following behavioral events: ear, tail and myoclonic twitch, forelimb clonus, falling, tonic hindlimb extension and death (28). Behavior was observed up to 5 minutes of PTZ infusion. In case of any surviving mice, they were sacrificed.
PTZ doses were calculated according to the formula: PTZ dose [mg/kg]=(PTZ concentration [mg/ml]×infusion rate [ml/s]×infusion duration [s]×1000)/mouse weight [g]). All work solutions contained heparine (20 μl/ml).
All statistical analyses were performed using GraphPad Prism 5 software (GraphPad Software, Inc.). Values were presented as means±standard deviation (SD). […] For mouse experiments, significant differences between estimated time intervals prior to above-mentioned seizure stages were calculated using the unpaired Student's t-test.

[3] = system: 6 Hz corneal stimulation-induced seizures in mice; test: 6 Hz psychomotor seizure model of partial epilepsy; format: in vivo, mouse
Experimental: For assessing the anti-convulsant activity of ar-Tumerone, the 6 Hz psychomotor seizure model of partial epilepsy (Barton M. E. et al., 2001) was used, thereby applying the following stimulation parameters: 6 Hz, 0.2 ms rectangular pulse width, 3 s duration.
Every mouse (male NMRI+/−30 g) was administered the compound (ar-tumerone 50 mg/kg, 20 mg/kg, 1 mg/kg and 100 μg/kg) or vehicle (PEG 200:DMSO 1:1) via i.p. injection. After 30 minutes of incubation, seizures were induced via corneal stimulation using the Ugo-Basil device. Prior to the placement of corneal electrodes, a drop of 0.5% xylocaine was applied to the eyes of the animal. Animals were restrained manually and released immediately in a transparent plastic cage following the stimulation. Then, the animal was observed. The seizure was characterized by stun, forelimb clonus, twitching of vibrissae, straub-tail for at least 45 s. Protection was defined as the absence of a seizure. A minimum of six animals per dose was used. […] Negative control (only vehicle) and positive control (valproic acid 300 mg/kg) were included as well. As expected, 6 out of 6 mice treated with only vehicle were not protected and 6 out of 6 mice treated with valproic acid were protected.

[4] = 10 μg/mL, 1 hour pre-incubation, PTZ 20 mM, 30 min tracking
[5] = 46 μM, PTZ 20 mM, 30 min tracking

Compound: CC(C)=CC(=O)C[C@H](C)c1ccc(C)cc1 [ar-turmerone]
- anticonvulsant activity (decrease of PTZ-induced seizure movements) [1, 4]: Significant decrease of the seizures triggered by PTZ
- anticonvulsant activity (decrease of PTZ-induced seizure movements) [1, 5]: anticonvulsant activity
- required dose of PTZ to trigger all assessed events ([2]; 50 mg/kg infused, tonic hindlimb extension p<0.05, other events and death p<0.01): significant resistance to the generation of seizures
- PTZ dose for generating seizure behaviors ([2]; 200 mg/kg, ear, tail and myoclonic twitch, tonic hind limb extension and death (p<0.05)): significant PTZ dose increase
- mice protected from seizures ([3]; 100 μg/kg i.p., 30 minutes before stimulation, n=6): Six out of six
- mice protected from seizures ([3]; 1 mg/kg i.p., 30 minutes before stimulation, n=6): Six out of six
- mice protected from seizures ([3]; 20 mg/kg i.p., 30 minutes before stimulation, n=6): Six out of six
- mice protected from seizures ([3]; 50 mg/kg i.p., 30 minutes before stimulation, n=6): Six out of six

Compound: COc1cc(/C=C/C(=O)CC(=O)/C=C/c2ccc(O)c(OC)c2)ccc1O [curcumin, reference compound]
- anticonvulsant activity (decrease of PTZ-induced seizure movements) ([1]; concentration not given): potent activity in inhibiting PTZ-induced seizures

Compound: CN1C(=O)CN=C(c2ccccc2)c2cc(Cl)ccc21 [diazepam, reference compound]
- anticonvulsant activity (decrease of PTZ-induced seizure movements) ([1]; 1.42 μg/ml, PTZ 20 mM, 30 min tracking): decreased PTZ-induced movements
- anticonvulsant activity (decrease of PTZ-induced seizure movements) ([1]; 14.23 μg/ml, PTZ 20 mM, 30 min tracking): decreased PTZ-induced movements

Compound: O=C1NC(=O)C(c2ccccc2)(c2ccccc2)N1 [phenytoin, reference compound]
- anticonvulsant activity (decrease of PTZ-induced seizure movements) ([1]; 75 μg/ml, PTZ 20 mM, 30 min tracking): significant activity
- anticonvulsant activity (decrease of PTZ-induced seizure movements) ([1]; 252.26 μg/ml, PTZ 20 mM, 30 min tracking): significant activity

Compound: CCCC(CCC)C(=O)[O-].[Na+] [sodium valproate, reference compound]
- anticonvulsant activity (decrease of PTZ-induced seizure movements) ([1]; concentration not given): able to control seizures generation
- delay of seizure behaviors (PTZ tail infusion) ([2]; 50 mg/kg, tonic hindlimb extension p<0.01, death p<0.05): capable of delaying tonic hindlimb extension

Compound: CCCC(CCC)C(=O)O [valproic acid, reference compound]
- mice protected from seizures ([3]; 300 mg/kg, positive control): 6 out of 6

Compound: α-atlantone
- anticonvulsant activity (decrease of PTZ-induced seizure movements) ([1]; 5 μg/mL, 1 hour pre-incubation, PTZ 20 mM, 30 min tracking): Significant decrease of the seizures triggered by PTZ
- anticonvulsant activity (decrease of PTZ-induced seizure movements) [1, 4]: Significant decrease of the seizures triggered by PTZ
- anticonvulsant activity (decrease of PTZ-induced seizure movements) ([1]; 23 μM, PTZ 20 mM, 30 min tracking): anticonvulsant activity
- anticonvulsant activity (decrease of PTZ-induced seizure movements) [1, 5]: anticonvulsant activity
